Results reported in patent US8017612B2, “Piperazine compound and use thereof as a HCV polymerase inhibitor” (priority 2006, dated 2011).

Assays:
[1] = biological target: T1, HCV polymerase (NS5B) type 1b (Hepatitis C virus genotype 1b, UniProt P26663); experiment: Assay of enzyme (HCV polymerase) inhibitory activity, type 1b enzyme; type: biochemical, HCV BK strain (type 1b); conditions: HCV polymerase inhibitory activity (IC50), 1b, type 1b enzyme 0.5 μg/ml, 25° C., 60 min
T1 construct: a region encoding NS5B (J Virol 1991 March, 65(3), 1105-13, 544 amino acids after deletion of 47 amino acids on the C-terminal); 6xHis (C); made in house; host or cells: Escherichia coli
In short: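 Rxn: NS5B 1b (BK, ΔC47, His6) 0.5 μg/ml; substrate RNA 5 μg/ml; ATP/GTP/CTP 50 μM, UTP 2 μM + [5,6-3H]UTP; 20 mM Tris pH 7.5, 5 mM MgCl2, 50 mM NaCl, 1 mM EDTA/DTT. 25 °C, 60 min. Stop with TCA/pyrophosphate, filter, scintillation count; IC50 vs. untreated.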

[2] = biological target: T2, HCV polymerase (NS5B) type 1a (Hepatitis C virus genotype 1a, UniProt P26664); experiment: Assay of enzyme (HCV polymerase) inhibitory activity, type 1a enzyme; type: biochemical, HCV type 1a (cloned from the blood of patients); conditions: HCV polymerase inhibitory activity (IC50), 1a, type 1a enzyme 1.5 μg/ml, 25° C., 60 min
T2 construct: made in house; host or cells: Escherichia coli (by the 'similar method' of the 1b enzyme)
In short: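 NS5B Δ47 C-term His6 (type 1a, 1.5 μg/ml); substrate RNA 5 μg/ml; ATP/GTP/CTP 50 μM, UTP 2 μM + [5,6-3H]UTP; Tris pH 7.5, MgCl2 5 mM; 25° C, 60 min. TCA/pyrophosphate stop, GF/B filter, scintillation. IC50 vs no-compound control.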

Row | Structure (SMILES) | IC50 [1] [nM] | IC50 [2] [nM]
1 | CCC(F)(F)c1ccc(CNC(=O)[C@H]2CN(C(=O)Cc3ccncc3)CCN2S(=O)(=O)c2ccc(OC(F)(F)F)cc2)cc1 [Example 508, (R)-4-(2-pyridin-4-yl-acetyl)-1-(4-trifluoromethoxy-benzenesulfonyl)-piperazine-2-carboxylic acid 4-(1,1-difluoro-propyl)-benzylamide] | < 100 | < 100
2 | CCCc1ccc(CNC(=O)[C@H]2CN(c3nc(C)c(C(=O)O)s3)CCN2S(=O)(=O)c2ccc(OC(F)(F)F)c(F)c2)cc1 [Example 509, 2-[(R)-4-(3-fluoro-4-trifluoromethoxy-benzenesulfonyl)-3-(4-propyl-benzylcarbamoyl)-piperazin-1-yl]-4-methyl-thiazole-5-carboxylic acid] | < 100 | < 100
3 | CCCc1ccc(CNC(=O)[C@H]2CN(c3nc(CO)cs3)CCN2S(=O)(=O)c2ccc(OC(F)(F)F)cc2)cc1 [Example 510, (R)-4-(4-hydroxymethyl-thiazol-2-yl)-1-(4-trifluoromethoxy-benzenesulfonyl)-piperazine-2-carboxylic acid 4-propyl-benzylamide] | < 100 | < 100
4 | CCC(F)(F)c1ccc(CNC(=O)[C@H]2CN(C(=O)Nc3ccnc(CO)c3)CCN2S(=O)(=O)c2ccc(OC(F)(F)F)cc2)cc1 [Example 511, (R)-4-(4-trifluoromethoxy-benzenesulfonyl)-piperazine-1,3-dicarboxylic acid 3-[4-(1,1-difluoro-propyl)-benzylamide] 1-[(2-hydroxymethyl-pyridin-4-yl)-amide]] | < 100 | < 100
5 | CCC(F)(F)c1ccc(CNC(=O)[C@H]2CN(C(=O)Nc3ccnc(C(=O)NC4CC4)c3)CCN2S(=O)(=O)c2ccc(OC(F)(F)F)cc2)cc1 [Example 512, (R)-4-(4-trifluoromethoxy-benzenesulfonyl)-piperazine-1,3-dicarboxylic acid 1-[(2-cyclopropylcarbamoyl-pyridin-4-yl)-amide] 3-[4-(1,1-difluoro-propyl)-benzylamide]] | < 100 | < 100
6 | CCC(F)(F)c1ccc(CNC(=O)[C@H]2CN(C(=O)Nc3ccnc(C(=O)N4CCOCC4)c3)CCN2S(=O)(=O)c2ccc(OC(F)(F)F)cc2)cc1 [Example 513, (R)-4-(4-trifluoromethoxy-benzenesulfonyl)-piperazine-1,3-dicarboxylic acid 3-[4-(1,1-difluoro-propyl)-benzylamide] 1-{[2-(morpholine-4-carbonyl)-pyridin-4-yl]-amide}] | < 100 | < 100
7 | CCC(F)(F)c1ccc(CNC(=O)[C@H]2CN(C(=O)Nc3ccnc(C(=O)N4CCCC4)c3)CCN2S(=O)(=O)c2ccc(OC(F)(F)F)cc2)cc1 [Example 514, (R)-4-(4-trifluoromethoxy-benzenesulfonyl)-piperazine-1,3-dicarboxylic acid 3-[4-(1,1-difluoro-propyl)-benzylamide] 1-{[2-(pyrrolidine-1-carbonyl)-pyridin-4-yl]-amide}] | < 100 | < 100
8 | CCCc1ccc(CNC(=O)[C@H]2CN(c3cnc(C(=O)OC)c(NC(C)=O)n3)CCN2S(=O)(=O)c2ccc(OC(F)(F)F)cc2)cc1 [Example 515, (R)-6′-acetylamino-3-(4-propyl-benzylcarbamoyl)-4-(4-trifluoromethoxy-benzenesulfonyl)-3,4,5,6-tetrahydro-2H-[1,2′]bipyrazinyl-5′-carboxylic acid methyl ester] | < 100 | < 100
9 | CCCc1ccc(CNC(=O)[C@H]2CN(c3n[nH]c(=O)s3)CCN2S(=O)(=O)c2ccc(OC(F)(F)F)cc2)cc1 [Example 516, (R)-4-(5-oxo-4,5-dihydro-[1,3,4]thiadiazol-2-yl)-1-(4-trifluoromethoxy-benzenesulfonyl)-piperazine-2-carboxylic acid 4-propyl-benzylamide] | < 100 | < 100
10 | CCC(F)(F)c1ccc(CNC(=O)[C@H]2CN(C(=O)Nc3ccnc(Cl)c3)CCN2S(=O)(=O)c2ccc(OC(F)(F)F)cc2)cc1 [Example 517, (R)-4-(4-trifluoromethoxy-benzenesulfonyl)-piperazine-1,3-dicarboxylic acid 1-[(2-chloro-pyridin-4-yl)-amide] 3-[4-(1,1-difluoro-propyl)-benzylamide]] | < 100 | < 100
11 | CCC(F)(F)c1ccc(CNC(=O)[C@H]2CN(C(=O)Cc3nnn(C)n3)CCN2S(=O)(=O)c2ccc(OC(F)(F)F)cc2)cc1 [Example 518, (R)-4-[2-(2-methyl-2H-tetrazol-5-yl)-acetyl]-1-(4-trifluoromethoxy-benzenesulfonyl)-piperazine-2-carboxylic acid 4-(1,1-difluoro-propyl)-benzylamide] | < 100 | < 100
12 | CCC(F)(F)c1ccc(CNC(=O)[C@H]2CN(C(=O)Cc3nnnn3C)CCN2S(=O)(=O)c2ccc(OC(F)(F)F)cc2)cc1 [Example 519, (R)-4-[2-(1-methyl-1H-tetrazol-5-yl)-acetyl]-1-(4-trifluoromethoxy-benzenesulfonyl)-piperazine-2-carboxylic acid 4-(1,1-difluoro-propyl)-benzylamide] | 100 to 1000 | 100 to 1000
13 | CCC(F)(F)c1ccc(CNC(=O)[C@H]2CN(C(=O)c3cscn3)CCN2S(=O)(=O)c2ccc(OC(F)(F)F)cc2)cc1 [Example 520, (R)-4-(thiazole-4-carbonyl)-1-(4-trifluoromethoxy-benzenesulfonyl)-piperazine-2-carboxylic acid 4-(1,1-difluoro-propyl)-benzylamide] | 100 to 1000 | > 1000
14 | CCC(F)(F)c1ccc(CNC(=O)[C@H]2CN(C(=O)c3cc(C)on3)CCN2S(=O)(=O)c2ccc(OC(F)(F)F)cc2)cc1 [Example 521, (R)-4-(5-methyl-isoxazole-3-carbonyl)-1-(4-trifluoromethoxy-benzenesulfonyl)-piperazine-2-carboxylic acid 4-(1,1-difluoro-propyl)-benzylamide] | 100 to 1000 | > 1000
15 | CCCc1ccc(CNC(=O)[C@H]2CN(c3cnc(C(=O)O)cn3)CCN2S(=O)(=O)c2ccc(CC)s2)cc1 [Example 522, (R)-4-(5-ethyl-thiophene-2-sulfonyl)-3-(4-propyl-benzylcarbamoyl)-3,4,5,6-tetrahydro-2H-[1,2′]bipyrazinyl-5′-carboxylic acid] | < 100 | < 100
16 | Cc1cc(N2CCN(S(=O)(=O)c3ccc(OC(F)(F)F)cc3)[C@@H](C(=O)NCc3ccc(C(C)C)cc3)C2)n[nH]1 [Example 523, (R)-4-(5-methyl-1H-pyrazol-3-yl)-1-(4-trifluoromethoxy-benzenesulfonyl)-piperazine-2-carboxylic acid 4-isopropyl-benzylamide] | 100 to 1000 | 100 to 1000
17 | CCc1ccc(S(=O)(=O)N2CCN(c3cnc(C(=O)O)cn3)C[C@@H]2C(=O)NCc2ccc(C(C)(C)C)cc2)cc1 [Example 524, (R)-3-(4-tert-butyl-benzylcarbamoyl)-4-(4-ethyl-benzenesulfonyl)-3,4,5,6-tetrahydro-2H-[1,2′]bipyrazinyl-5′-carboxylic acid] | < 100 | < 100
18 | CCC(F)(F)c1ccc(CNC(=O)[C@H]2CN(C(=O)Nc3cscn3)CCN2S(=O)(=O)c2ccc(OC(F)(F)F)cc2)cc1 [Example 525, (R)-4-(4-trifluoromethoxy-benzenesulfonyl)-piperazine-1,3-dicarboxylic acid 3-[4-(1,1-difluoro-propyl)-benzylamide] 1-thiazol-4-ylamide] | < 100 | < 100
19 | CCC(F)(F)c1ccc(CNC(=O)[C@H]2CN(C(=O)Nc3cc(C)on3)CCN2S(=O)(=O)c2ccc(OC(F)(F)F)cc2)cc1 [Example 526, (R)-4-(4-trifluoromethoxy-benzenesulfonyl)-piperazine-1,3-dicarboxylic acid 3-[4-(1,1-difluoro-propyl)-benzylamide] 1-[(5-methyl-isoxazol-3-yl)-amide]] | 100 to 1000 | 100 to 1000
20 | CCC(F)(F)c1ccc(CNC(=O)[C@H]2CN(C(=O)Nc3nc(C)ns3)CCN2S(=O)(=O)c2ccc(OC(F)(F)F)cc2)cc1 [Example 527, (R)-4-(4-trifluoromethoxy-benzenesulfonyl)-piperazine-1,3-dicarboxylic acid 3-[4-(1,1-difluoro-propyl)-benzylamide] 1-[(3-methyl-[1,2,4]thiadiazol-5-yl)-amide]] | 100 to 1000 | 100 to 1000
21 | CCC(F)(F)c1ccc(CNC(=O)[C@H]2CN(C(=O)Nc3cc(C)no3)CCN2S(=O)(=O)c2ccc(OC(F)(F)F)cc2)cc1 [Example 528, (R)-4-(4-trifluoromethoxy-benzenesulfonyl)-piperazine-1,3-dicarboxylic acid 3-[4-(1,1-difluoro-propyl)-benzylamide] 1-[(3-methyl-isoxazol-5-yl)-amide]] | < 100 | 100 to 1000
22 | CC(=O)N1CCN(S(=O)(=O)c2ccc(OC(F)(F)F)cc2)[C@@H](C(=O)NCc2ccc(C(C)(C)C)cc2)C1 [Example 529, (R)-4-acetyl-1-(4-trifluoromethoxy-benzenesulfonyl)-piperazine-2-carboxylic acid 4-tert-butyl-benzylamide] | < 100 | < 100
